Consider nine compounds from PubChem BioAssay (NCI).

Molecules are shown by their SMILES. Where “and” joins values, the source holds several entries; their conditions need not be identical. Identical values can stand only once.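 Protocol summary: plate cells (96-well), add compound at 5 concentrations, incubate 48 h, interpolate endpoints linearly. GI50 marks 50% less growth. At the TGI there is no net growth.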

Among the test systems are NCI-H226 lung; OVCAR-5 ovarian; RXF 393 renal; HS 578T breast; KM12 colon; SF-295 CNS; K-562 leukemia; UO-31 renal; HCT-15 colon; MALME-3M melanoma.
What all share (assay): DTP human tumour cell line panel, 48 h

Consider `CN(C)c1ccc(C(=N)c2ccc(N(C)C)cc2)cc1`, for which the GI50 in the test with NCI-H226 lung was 7.81 µM and 9.07 µM; with OVCAR-5 ovarian, 7.57 µM and 7.89 µM; in the test on RXF 393 renal, 2.93 µM and 2.86 µM; in the test on HS 578T breast, 1.73 µM and 4.1 µM; with KM12 colon, 1.58 µM and 1.65 µM; in the test on SF-295 CNS, 2.01 µM and 3.4 µM. Also, the GI50 is 0.553 µM with K-562 leukemia; 3.65 µM and 5.86 µM in the test with UO-31 renal; 2.56 µM and 2.6 µM in the test on HCT-15 colon; 3.04 µM and 9.7 µM in the test on MALME-3M melanoma. In addition, the TGI is 51.6 µM and 47.2 µM with NCI-H226 lung; above 100 µM in the test with OVCAR-5 ovarian; 12.2 µM and 19.3 µM in the test with RXF 393 renal; 7.64 µM and 59.3 µM with HS 578T breast; 16.2 µM and 21.5 µM in the test on KM12 colon; 11.9 µM and 21.9 µM with SF-295 CNS. The TGI with K-562 leukemia was 64.9 µM; in the test on UO-31 renal it was 32 µM and > 100 µM; in the test with HCT-15 colon, above 100 µM; in the test on MALME-3M melanoma, 28.8 µM and 62.2 µM.

For `C=C(C)[C@@H]1C/C=C(/CO)CC[C@H]2O[C@]2(C)CC/C=C(\C)CC1`, the GI50 is 19.7 µM in the test on NCI-H226 lung; 24.7 µM in the test on OVCAR-5 ovarian; 18.3 µM in the test on RXF 393 renal; 18.2 µM with HS 578T breast; 16.1 µM in the test with KM12 colon; 11.6 µM in the test with SF-295 CNS. The GI50 is 5.73 µM in the test with K-562 leukemia, 13.6 µM in the test on UO-31 renal, 23.6 µM with HCT-15 colon and 12.9 µM with MALME-3M melanoma. Moreover, the concentration for total growth inhibition (TGI) in the test on NCI-H226 lung is 43.7 µM; in the test with OVCAR-5 ovarian it was above 100 µM; in the test with RXF 393 renal, 33.4 µM; in the test with HS 578T breast, 38.7 µM; with KM12 colon it was 32.4 µM; in the test on SF-295 CNS, 24.5 µM. Also, the TGI came out at 26.1 µM with K-562 leukemia, 29.9 µM in the test on UO-31 renal, 51.7 µM in the test on HCT-15 colon and 28.5 µM with MALME-3M melanoma.

With `O=C(O)C(Br)C(Br)C(=O)O` (stereo not given), the TGI in the test on NCI-H226 lung, in the test with OVCAR-5 ovarian, in the test on RXF 393 renal, with HS 578T breast, in the test on KM12 colon and in the test with SF-295 CNS was above 100 µM each time. Also, the TGI in the test with K-562 leukemia, in the test on UO-31 renal, with HCT-15 colon and in the test on MALME-3M melanoma was above 100 µM in each case.

As for `Cc1ccc(-c2c(C#N)[n+](=O)c3cc(F)c(F)cc3n2[O-])cc1`, the GI50 is 15.7 µM in the test on NCI-H226 lung; 3.91 µM in the test on OVCAR-5 ovarian; 2.63 µM in the test with RXF 393 renal; 25.3 µM with HS 578T breast; 9.9 µM with KM12 colon; 2.01 µM in the test with SF-295 CNS. Moreover, the GI50 is 1.64 µM in the test on K-562 leukemia, 9.79 µM with UO-31 renal, 1.2 µM in the test with HCT-15 colon and 2.06 µM with MALME-3M melanoma. Further, the TGI is 32.3 µM in the test on NCI-H226 lung; 15.9 µM with OVCAR-5 ovarian; 8.91 µM in the test with RXF 393 renal; above 100 µM with HS 578T breast; 28.3 µM with KM12 colon; 5.27 µM in the test on SF-295 CNS. The total growth inhibition concentration (TGI) came out at 4.29 µM in the test with K-562 leukemia, 37.7 µM in the test on UO-31 renal, 3.75 µM with HCT-15 colon and 5.23 µM with MALME-3M melanoma.

For `O=C1NC(O)c2ccccc2O1` (stereo not given), the TGI in the test with NCI-H226 lung, in the test with OVCAR-5 ovarian, with RXF 393 renal, in the test on HS 578T breast, in the test on KM12 colon and with SF-295 CNS was above 100 µM throughout. The TGI in the test with K-562 leukemia, with UO-31 renal, in the test on HCT-15 colon and in the test on MALME-3M melanoma was above 100 µM in each case.

With `Nc1ncn(C2OC(COP(=O)(O)O)C(O)C2O)c(=O)n1` (stereo not given), the TGI in the test with NCI-H226 lung, with OVCAR-5 ovarian, in the test on RXF 393 renal, in the test with HS 578T breast, in the test on KM12 colon and in the test on SF-295 CNS was above 100 µM throughout. The TGI in the test with K-562 leukemia, in the test on UO-31 renal, in the test with HCT-15 colon and with MALME-3M melanoma was above 100 µM throughout.

Turning to `COc1cccc(-n2ncc3c(N/N=C/c4ccc(C)cc4)ncnc32)c1`, the GI50 in the test with NCI-H226 lung is above 25 µM; in the test on OVCAR-5 ovarian, above 25 µM; with RXF 393 renal, above 25 µM; with HS 578T breast, above 17.4 µM; with KM12 colon, above 25 µM; with SF-295 CNS, above 25 µM. The GI50 is above 25 µM in the test with K-562 leukemia, above 25 µM with UO-31 renal, above 25 µM in the test with HCT-15 colon and 24.1 µM in the test on MALME-3M melanoma. Besides, the TGI with NCI-H226 lung, in the test on OVCAR-5 ovarian, in the test on RXF 393 renal, in the test on HS 578T breast, in the test on KM12 colon and in the test on SF-295 CNS was above 25 µM in each case. Moreover, the TGI with K-562 leukemia, with UO-31 renal, in the test with HCT-15 colon and in the test with MALME-3M melanoma was above 25 µM throughout.

For `C=C1C(=O)O[C@H]2[C@H]1CC/C(Cn1cc(Cc3c[nH]c4ccccc34)nn1)=C\CC[C@@]1(C)O[C@@H]21`, the GI50 in the test on NCI-H226 lung was 2.1 µM; in the test with OVCAR-5 ovarian, 1.8 µM; with RXF 393 renal, 1.63 µM; in the test on HS 578T breast, 3.88 µM; in the test with KM12 colon it was 2.34 µM; with SF-295 CNS, 4.71 µM. Moreover, the GI50 in the test on K-562 leukemia is 1.81 µM; in the test on UO-31 renal it was 1.49 µM; in the test on HCT-15 colon, 1.59 µM; in the test on MALME-3M melanoma it was 1.63 µM. In addition, the TGI worked out at 4.75 µM in the test on NCI-H226 lung; 3.48 µM in the test on OVCAR-5 ovarian; 3.63 µM in the test with RXF 393 renal; 18.3 µM in the test with HS 578T breast; 4.99 µM in the test with KM12 colon; 17.2 µM in the test with SF-295 CNS. The TGI in the test on K-562 leukemia was found to be 6.14 µM; in the test with UO-31 renal it was 2.86 µM; in the test with HCT-15 colon, 3.35 µM; in the test on MALME-3M melanoma it was 3.07 µM.

As to `c1ccc2cc(Cn3cc[n+](Cc4ccc5ccccc5c4)c3)ccc2c1`, the GI50 in the test on NCI-H226 lung is 1.72 µM; in the test on OVCAR-5 ovarian it was 1.71 µM; in the test with RXF 393 renal, 1.25 µM; in the test on HS 578T breast it was 1.28 µM; in the test with KM12 colon, 1.15 µM; with SF-295 CNS, 3.65 µM. For the same compound, the GI50 is 1.02 µM in the test with K-562 leukemia, 12.1 µM with UO-31 renal, 14.9 µM with HCT-15 colon and 0.413 µM in the test with MALME-3M melanoma. Moreover, the TGI worked out at 14.3 µM in the test on NCI-H226 lung; 7.19 µM in the test on OVCAR-5 ovarian; 4.72 µM in the test on RXF 393 renal; 8.97 µM in the test on HS 578T breast; 2.62 µM in the test on KM12 colon; 19.6 µM with SF-295 CNS. The TGI in the test on K-562 leukemia was 14.5 µM; with UO-31 renal, 28.8 µM; in the test on HCT-15 colon, 29.5 µM; in the test on MALME-3M melanoma, 2.49 µM.
